Measured values from PMC5856786, “A DHODH inhibitor increases p53 synthesis and enhances tumor cell killing by p53 degradation blockage” (Nature Communications, 2018).
Counter-ions that a name gives are not always drawn.

Molecular target: recombinant human DHODH (Homo sapiens, UniProt Q02127)
Experiment: Endpoint DHODH enzyme assay (coenzyme Q10, DCIP)
Assay type: biochemical
Design: purchased Prospecbio ENZ-642
Details: compound at 10 µM
Protocol: In Supplementary Tables 5 and 6, endpoint assays were performed with 10 nM recombinant human DHODH (#ENZ-642, Prospecbio). The reaction mixture consisted of 624.6 µM DL-dihydroorotic acid, 66.4 µM coenzyme Q10, 66.4 µM 2,6-dichlorophenolindophenol sodium salt (DCIP) (all reagents purchased from Sigma-Aldrich) in enzyme buffer (50 mM Tris-HCl, pH 8.0, 0.1% Triton X-100, 150 mM KCl). Loss in absorbance by DCIP was measured at 595 nm after incubation at RT for 60 min.

[1] = Supplementary Table 6, 30,000 compound library
[2] = Supplementary Table 5, 20,000 compound library

Chain of recombinant human DHODH (Q02127 31-395 limits assumed): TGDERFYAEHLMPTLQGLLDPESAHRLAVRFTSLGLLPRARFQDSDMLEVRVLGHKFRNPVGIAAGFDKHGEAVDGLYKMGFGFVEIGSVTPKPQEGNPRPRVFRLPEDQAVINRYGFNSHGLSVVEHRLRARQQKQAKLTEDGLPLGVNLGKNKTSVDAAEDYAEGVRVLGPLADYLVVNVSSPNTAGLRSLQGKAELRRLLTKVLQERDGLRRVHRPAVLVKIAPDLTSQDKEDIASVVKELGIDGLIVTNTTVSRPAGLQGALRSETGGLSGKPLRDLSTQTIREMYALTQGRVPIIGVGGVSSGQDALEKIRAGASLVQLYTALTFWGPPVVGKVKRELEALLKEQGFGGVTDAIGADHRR

| remaining activity at 10 µM [1] [%] | remaining activity at 10 µM [2] [%] | SMILES | also measured |
| --- | --- | --- | --- |
| 57.9 |  | O=[N+]([O-])c1ccc2[nH]c3c(c2c1)CCCC3NC1Cc2ccccc2C1 (centres unmarked) [compound 5781444, N-(2,3-dihydro-1H-inden-2-yl)-6-nitro-2,3,4,9-tetrahydro-1H-carbazol-1-amine] |  |
| 60.5 |  | CC1CCC(NC2CCCc3c2[nH]c2ccc([N+](=O)[O-])cc32)C1 (centres unmarked) [compound 5781446, N-(3-methylcyclopentyl)-6-nitro-2,3,4,9-tetrahydro-1H-carbazol-1-amine] |  |
| 56.8 |  | CC1CCC(NC2CCCc3c2[nH]c2ccc([N+](=O)[O-])cc32)CC1 (centres unmarked) [compound 5781447, N-(4-methylcyclohexyl)-6-nitro-2,3,4,9-tetrahydro-1H-carbazol-1-amine] |  |
| 90.2 |  | CC(C)NC1CCCc2c1[nH]c1ccc([N+](=O)[O-])cc21 (centres unmarked) [compound 5781470, N-isopropyl-6-nitro-2,3,4,9-tetrahydro-1H-carbazol-1-amine] |  |
| 101 |  | COc1ccc(C=NN2CCN(Cc3ccccc3)CC2)c(OC)c1 [compound 5783994, 4-benzyl-N-(2,4-dimethoxybenzylidene)-1-piperazinamine] |  |
| 97.6 |  | Cc1cccc(Cc2cnc(NC(=O)c3ccc(Br)cc3)s2)c1 [compound 5852371, 4-bromo-N-[5-(3-methylbenzyl)-1,3-thiazol-2-yl]benzamide] |  |
| 99.2 |  | COc1ccccc1NC(=O)C1c2ccccc2Oc2ccccc21 [compound 5867214, N-(2-methoxyphenyl)-9H-xanthene-9-carboxamide] |  |
| 27.3 |  | Cc1ccc2[nH]c3c(c2c1)CCCC3NCc1ccccc1 (centres unmarked) [compound 5869604, N-benzyl-6-methyl-2,3,4,9-tetrahydro-1H-carbazol-1-amine hydrochloride] |  |
| 99.6 |  | COc1ccc(Cl)cc1NC1=C(Cl)C(=O)N(c2cccc(C)c2C)C1=O [compound 6149306, 3-chloro-4-[(5-chloro-2-methoxyphenyl)amino]-1-(2,3-dimethylphenyl)-1H-pyrrole-2,5-dione] |  |
| 101 |  | CC(C)Oc1ccc(C(=O)NC(=S)Nc2ccc(N3CCCCC3)cc2)cc1 [compound 6497060, 4-isopropoxy-N-({[4-(1-piperidinyl)phenyl]amino}carbonothioyl)benzamide] |  |
| 84.1 |  | CCOc1ccc(NC(=S)NC(=O)c2ccc(C(C)(C)C)cc2)cc1 [compound 6501326, 4-tert-butyl-N-{[(4-ethoxyphenyl)amino]carbonothioyl}benzamide] |  |
| 97.8 |  | COc1ccc(NC(=S)NC(=O)c2ccc(C(C)(C)C)cc2)c(OC)c1 [compound 6513572, 4-tert-butyl-N-{[(2,4-dimethoxyphenyl)amino]carbonothioyl}benzamide] |  |
| 88.9 |  | CC(C)(C)c1ccc(C(=O)NC(=S)Nc2cccc([N+](=O)[O-])c2)cc1 [compound 6515740, 4-tert-butyl-N-{[(3-nitrophenyl)amino]carbonothioyl}benzamide] |  |
| 63.2 |  | CC(C)(C)c1ccc(C(=O)NC(=S)Nc2cccc(NC(=O)c3ccccc3)c2)cc1 [compound 6519439, N-({[3-(benzoylamino)phenyl]amino}carbonothioyl)-4-tert-butylbenzamide] |  |
|  | 72.2 | Cc1ccccc1NC(=S)NC(=O)c1cccc2c(Br)cccc12 [compound 6592864, 5-bromo-N-{[(2-methylphenyl)amino]carbonothioyl}-1-naphthamide] |  |
| 51 |  | Cc1cc(O)c(NC(=S)NC(=O)c2ccc(C(C)(C)C)cc2)cc1C [compound 6611243, 4-tert-butyl-N-{[(2-hydroxy-4,5-dimethylphenyl)amino]carbonothioyl}benzamide] |  |
|  | 96.3 | O=c1oc2ccccc2cc1-c1cn2cc(Cl)ccc2n1 [compound 6623100, 3-(6-chloroimidazo[1,2-a]pyridin-2-yl)-2H-chromen-2-one] |  |
| 78.8 |  | COc1cc(C=C2N=C(SC)SC2=O)cc(Br)c1OCc1ccccc1 [compound 6638116, 4-[4-(benzyloxy)-3-bromo-5-methoxybenzylidene]-2-(methylthio)-1,3-thiazol-5(4H)-one] |  |
| 74.9 |  | CSC1=NC(=Cc2ccc(OCc3ccccc3)cc2)C(=O)S1 [compound 6638197, 4-[4-(benzyloxy)benzylidene]-2-(methylthio)-1,3-thiazol-5(4H)-one] |  |
| 66 |  | c1ccc(OCCNc2ccc3ccccc3c2)cc1 [compound 6641022, 2-naphthyl(2-phenoxyethyl)amine] |  |

| remaining activity at 10 µM [1] [%] | remaining activity at 10 µM [2] [%] | SMILES | also measured |
| --- | --- | --- | --- |
|  | 93.2 | COc1ccc(OC)c(C(C)NC(=O)c2ccco2)c1 (centres unmarked) [compound 6912406, N-[1-(2,5-dimethoxyphenyl)ethyl]-2-furamide] |  |
|  | 79.9 | COc1cc(CNc2ccc(C)c(Cl)c2)cc(Cl)c1OC [compound 7574753, (3-chloro-4,5-dimethoxybenzyl)(3-chloro-4-methylphenyl)amine] |  |
|  | 79 | CCN(CC)c1ccc(NC(=S)NC(=O)c2cccc(C)c2OC)cc1 [compound 7578012, N-({[4-(diethylamino)phenyl]amino}carbonothioyl)-2-methoxy-3-methylbenzamide] |  |
|  | 92.7 | CCOc1cccc2c(C)nc(Nc3nc(=O)c4c([nH]3)CCCC4)nc12 [compound 7587351, 2-[(8-ethoxy-4-methyl-2-quinazolinyl)amino]-5,6,7,8-tetrahydro-4(1H)-quinazolinone] |  |
|  | 103 | O=S(=O)(CCSc1nc2ccccc2o1)c1nc2ccccc2s1 [compound 7617239, 2-{[2-(1,3-benzothiazol-2-ylsulfonyl)ethyl]thio}-1,3-benzoxazole] |  |
|  |  | CCc1cccc(C)c1NC(=O)CSc1nc2ccccc2c(=O)n1-c1cccc2ccccc12 [compound 7638934, N-(2-ethyl-6-methylphenyl)-2-{[3-(1-naphthyl)-4-oxo-3,4-dihydro-2-quinazolinyl]thio}acetamide] | remaining DHODH activity (%) Average [2]: 72.65% |
|  | 11 | O=C(Nc1nc2c(s1)CCCC2)C(=O)c1c[nH]c2ccccc12 [compound 7690424, 2-(1H-indol-3-yl)-2-oxo-N-(4,5,6,7-tetrahydro-1,3-benzothiazol-2-yl)acetamide] |  |
|  |  | CC1=C(C(=O)Nc2ccc(F)cc2)C(c2ccccc2OCc2ccccc2)C2=C(CCCC2=O)N1 (centres unmarked) [compound 7705624, 4-[2-(benzyloxy)phenyl]-N-(4-fluorophenyl)-2-methyl-5-oxo-1,4,5,6,7,8-hexahydro-3-quinolinecarboxamide] | remaining DHODH activity (%) Average [2]: 104.27% |
|  |  | CCOC(=O)C1=C(C)NC2=C(C(=O)CC(c3ccco3)C2)C1c1cccs1 (centres unmarked) [compound 7706732, ethyl 7-(2-furyl)-2-methyl-5-oxo-4-(2-thienyl)-1,4,5,6,7,8-hexahydro-3-quinolinecarboxylate] | remaining DHODH activity (%) Average [2]: 95.89% |
|  | 98.2 | CCOc1cc(C=Cc2ccc3cccc(OC(=O)CC)c3n2)ccc1OC(=O)CC [compound 7706999, 2-{2-[3-ethoxy-4-(propionyloxy)phenyl]vinyl}-8-quinolinyl propionate] |  |
|  | -8.22 | Cc1ccc(CSCC(=O)Nc2ccccc2C(=O)O)cc1 [compound 7723007, 2-({[(4-methylbenzyl)thio]acetyl}amino)benzoic acid] |  |
|  | 98.2 | O=C(Nc1cc(C(F)(F)F)cc(C(F)(F)F)c1)c1c(F)c(F)c(F)c(F)c1F [compound 7739721, N-[3,5-bis(trifluoromethyl)phenyl]-2,3,4,5,6-pentafluorobenzamide] |  |
|  | 77.3 | Oc1ccccc1-c1nc(C=Cc2cccs2)n[nH]1 [compound 7776857, 2-{3-[2-(2-thienyl)vinyl]-1H-1,2,4-triazol-5-yl}phenol] |  |
|  | 73.5 | Cc1cc(O)ccc1NC(=O)c1ccc(-c2ccccc2)cc1 [compound 7782544, N-(4-hydroxy-2-methylphenyl)-4-biphenylcarboxamide] |  |
|  | 92.2 | NC(=O)c1ccccc1NC(=O)Nc1ccccc1C(F)(F)F [compound 7794325, 2-[({[2-(trifluoromethyl)phenyl]amino}carbonyl)amino]benzamide] |  |
|  | 88.1 | CC(C)Oc1ccccc1C1CC(=O)Nc2cc3c(cc21)OCCO3 (centres unmarked) [compound 7800701, 9-(2-isopropoxyphenyl)-2,3,8,9-tetrahydro[1,4]dioxino[2,3-g]quinolin-7(6H)-one] |  |
|  | 100 | COC(=O)c1cccc(NC(=S)Nc2cc(Cl)ccc2OC)c1 [compound 7801595, methyl 3-({[(5-chloro-2-methoxyphenyl)amino]carbonothioyl}amino)benzoate] |  |
|  | 103 | O=C1CC(c2ccccc2OCc2ccccc2)c2cc3c(cc2N1)OCCO3 (centres unmarked) [compound 7834586, 9-[2-(benzyloxy)phenyl]-2,3,8,9-tetrahydro[1,4]dioxino[2,3-g]quinolin-7(6H)-one] |  |
|  | 3.65 | Cc1cc(=O)oc2cc(NC(=S)N3c4ccccc4CC3C)ccc12 (centres unmarked) [compound 7841649, 2-methyl-N-(4-methyl-2-oxo-2H-chromen-7-yl)-1-indolinecarbothioamide] |  |

| SMILES | remaining activity at 10 µM [1] [%] | remaining activity at 10 µM [2] [%] | also measured |
| --- | --- | --- | --- |
| COc1ccccc1CC(C)NC1CCCc2c1[nH]c1ccc([N+](=O)[O-])cc21 (centres unmarked) [compound 5781453, N-[2-(2-methoxyphenyl)-1-methylethyl]-6-nitro-2,3,4,9-tetrahydro-1H-carbazol-1-amine] | 52.4 |  |  |
| CC(Cc1ccccc1F)NC1CCCc2c1[nH]c1ccc([N+](=O)[O-])cc21 (centres unmarked) [compound 5781454, N-[2-(2-fluorophenyl)-1-methylethyl]-6-nitro-2,3,4,9-tetrahydro-1H-carbazol-1-amine] | 55.4 |  |  |
